# Experimental data reported in patent US20230190754A1, “Therapeutic combinations for the treatment of Progressive Fibrosing interstitial lung diseases” (Boehringer Ingelheim International GmbH, priority 2021, published 2023).
# “And” between values parts separate entries of the source, which are not always exact repeats. Identical values can stand only once.
# Key:
# IPF patients [1] = assay: Phase II clinical trial in IPF patients: change from baseline in Forced Vital Capacity (FVC) over 12 weeks (MMRM); type: in vivo, human; settings: 18 mg b.i.d.
# IPF patients [2] = assay: Phase II clinical trial in IPF patients: completion / premature discontinuation of observation and treatment period; type: in vivo, human; settings: 18 mg b.i.d.
# Method: The participants were divided into 2 groups by chance (the “active agent group” and the “placebo group”). […] One 12 mg placebo tablet and one 6 mg placebo tablet (both containing no active ingredient, see Table 1) was administered orally to the patients of the second group twice daily (b.i.d.).
# The “active agent group” and the “placebo group” were further distributed to two different groups regarding background medication: the “AF-group” (“antifibrotic background medication group”) and the “Non-AF-group” (“no antifibrotic background medication group”). […] The combination of both nintedanib and pirfenidone as background medication was not allowed in the “AF-group”.
# The trial was a randomised, double-blind, placebo-controlled parallel group study.
# [3] = AF-group (antifibrotic background), listed as Comp. of Form. III
# [4] = AF-group (antifibrotic background), listed as active agent
# [5] = AF-group, nintedanib background
# [6] = AF-group, pirfenidone background
# [7] = pooled background therapy (Non-AF+AF)
# [8] = AF-group (antifibrotic background)
smiles,measurement,setting,value
[O-][S@+]1CCc2nc(N3CCC(c4ncc(Cl)cn4)CC3)nc(NC3(CO)CCC3)c21 [Comp. of form. III],Adjusted mean change from baseline in FVC to week 12 (MMRM),IPF patients [1]; [3],2.72 mL
same,Adjusted mean difference vs. Placebo in change from baseline in FVC to week 12 (MMRM),IPF patients [1]; [3],80.4 mL and 80.42 mL
same,Adjusted mean change from baseline in FVC to week 12 (MMRM),IPF patients [1]; [4],+2.72 ml
same,Adjusted mean difference vs. Placebo in change from baseline in FVC to week 12 (MMRM),IPF patients [1]; [4],80.42 mL
same,Adjusted mean change from baseline in FVC to week 12 (MMRM),IPF patients [1]; [5],23.41 mL
same,Adjusted mean difference vs. Placebo in change from baseline in FVC to week 12 (MMRM),IPF patients [1]; [5],105.43 mL
same,Week 12 Mean FVC,IPF patients [1]; [5],2787.37 mL
same,Adjusted mean change from baseline in FVC to week 12 (MMRM),"IPF patients [1]; AF-group, nintedanib background, listed as PDE4-inhibitor of formula III",+23.41 ml
same,Adjusted mean change from baseline in FVC to week 12 (MMRM),IPF patients [1]; [6],-18.76 mL
same,Adjusted mean difference vs. Placebo in change from baseline in FVC to week 12 (MMRM),IPF patients [1]; [6],61.30 mL
same,Week 12 Mean FVC,IPF patients [1]; [6],2879.35 mL
same,Adjusted mean change from baseline in FVC to week 12 (MMRM),"IPF patients [1]; AF-group, pirfenidone background, listed as PDE4-inhibitor of formula III",-18.67 mL
same,Adjusted mean change from baseline in FVC to week 12 (MMRM),IPF patients [1]; Non-AF-group,6.10 mL
same,Adjusted mean difference vs. Placebo in change from baseline in FVC to week 12 (MMRM),IPF patients [1]; Non-AF-group,101.7 mL and 101.72 mL
same,Adjusted mean difference vs. Placebo in change from baseline in FVC to week 12 (MMRM),"IPF patients [1]; Non-AF-group, listed as PDE4-inhibitor of formula III",101.72 mL
same,Adjusted mean difference vs. Placebo in change from baseline in FVC to week 12 (MMRM),"IPF patients [1]; Non-AF-group, listed as active agent",101.72 mL
same,Adjusted mean change from baseline in FVC to week 12 (MMRM),IPF patients [1]; [7],4.59 mL
same,Adjusted mean difference vs. Placebo in change from baseline in FVC to week 12 (MMRM),IPF patients [1]; [7],88.38 mL
same,Adjusted mean change from baseline in FVC to week 12 (MMRM),"IPF patients [1]; pooled background therapy (Non-AF+AF), listed as active agent",-4.59 mL
same,"Not completed planned treatment period (premature discontinuation), patients %",IPF patients [2]; [8],20.4%
same,"Not completed planned treatment period (premature discontinuation), patients N",IPF patients [2]; [8],10
same,"Observation period not completed: Death, patients %",IPF patients [2]; [8],2.0%
same,"Observation period not completed: Death, patients N",IPF patients [2]; [8],1
same,"Treatment period not completed: Adverse Event, patients %",IPF patients [2]; [8],20.4%
same,"Treatment period not completed: Adverse Event, patients N",IPF patients [2]; [8],10
same,"Not completed planned treatment period (premature discontinuation), patients %",IPF patients [2]; Non-AF-group,10.4%
same,"Not completed planned treatment period (premature discontinuation), patients N",IPF patients [2]; Non-AF-group,5
same,"Observation period not completed: Death, patients %",IPF patients [2]; Non-AF-group,2.1%
same,"Observation period not completed: Death, patients N",IPF patients [2]; Non-AF-group,1
same,"Treatment period not completed: Adverse Event, patients %",IPF patients [2]; Non-AF-group,6.3%
same,"Treatment period not completed: Adverse Event, patients N",IPF patients [2]; Non-AF-group,3
